Results: ChEMBL document CHEMBL2062514 (J Med Chem, 2012)
pKi: −log10 of the molar value.

Columns and labels:
[1] = biological target: T1, Adenosine receptor A3 (Mus musculus, UniProt Q61618); experiment: Displacement of [125I]I-AB-MECA from mouse adenosine A3 receptor expressed in HEK293 cells after 60 mins by liquid scintillation counting
T1 sequence (Q61618 whole entry): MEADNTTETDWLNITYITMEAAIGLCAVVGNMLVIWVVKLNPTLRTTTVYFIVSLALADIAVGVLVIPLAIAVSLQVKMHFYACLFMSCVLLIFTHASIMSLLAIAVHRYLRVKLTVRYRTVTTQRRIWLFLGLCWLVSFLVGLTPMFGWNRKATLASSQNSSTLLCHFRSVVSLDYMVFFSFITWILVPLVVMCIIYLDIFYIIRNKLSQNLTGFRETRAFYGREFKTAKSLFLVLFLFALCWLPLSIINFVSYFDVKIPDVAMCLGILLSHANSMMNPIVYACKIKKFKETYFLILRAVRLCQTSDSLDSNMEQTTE

[2] = biological target: T2, Adenosine receptor A2a (Homo sapiens, UniProt P29274); experiment: Displacement of [3H]CGS21680 from human recombinant adenosine A2A receptor expressed in HEK293 cells at 10 uM after 60 mins by liquid scintillation counting; assay type: cell-based
T2 sequence (P29274 whole entry): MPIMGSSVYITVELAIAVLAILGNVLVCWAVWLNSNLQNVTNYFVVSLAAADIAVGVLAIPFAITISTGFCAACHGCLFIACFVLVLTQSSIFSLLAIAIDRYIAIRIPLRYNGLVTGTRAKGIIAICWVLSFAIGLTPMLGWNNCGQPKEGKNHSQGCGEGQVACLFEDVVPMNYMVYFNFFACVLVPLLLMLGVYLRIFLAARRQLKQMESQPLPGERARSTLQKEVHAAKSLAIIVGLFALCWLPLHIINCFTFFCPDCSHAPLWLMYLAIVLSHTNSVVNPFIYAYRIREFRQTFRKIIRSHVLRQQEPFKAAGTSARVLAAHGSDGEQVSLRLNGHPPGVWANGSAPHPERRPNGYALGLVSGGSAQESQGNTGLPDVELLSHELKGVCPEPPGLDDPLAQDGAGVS

[3] = biological target: Adenosine receptor A2a (Mus musculus) (UniProt Q60613); experiment: Displacement of [3H]CGS21680 from mouse adenosine A2A receptor expressed in HEK293 cells at 10 uM after 60 mins by liquid scintillation counting
Sequence of Adenosine receptor A2a (Mus musculus) (Q60613 whole entry): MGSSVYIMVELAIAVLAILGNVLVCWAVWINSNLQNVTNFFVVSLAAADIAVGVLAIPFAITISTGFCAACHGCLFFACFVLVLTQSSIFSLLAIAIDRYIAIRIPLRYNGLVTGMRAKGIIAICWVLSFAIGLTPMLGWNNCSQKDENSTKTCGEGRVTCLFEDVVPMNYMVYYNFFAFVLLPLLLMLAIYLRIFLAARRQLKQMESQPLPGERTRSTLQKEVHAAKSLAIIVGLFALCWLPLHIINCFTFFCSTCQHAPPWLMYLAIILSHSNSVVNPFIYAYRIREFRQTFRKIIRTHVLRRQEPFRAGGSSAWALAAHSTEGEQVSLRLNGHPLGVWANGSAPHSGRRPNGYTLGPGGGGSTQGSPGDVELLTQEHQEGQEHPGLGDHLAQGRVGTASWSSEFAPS

[4] = Selectivity ratio of Ki for mouse adenosine A3 receptor to Ki for human recombinant adenosine A3 receptor
[5] = biological target: T3, Adenosine receptor A3 (Homo sapiens) (UniProt P0DMS8); experiment: Agonist activity at human recombinant adenosine A3 receptor expressed in CHO cells assessed as inhibition of forskolin-stimulated cAMP production at 10 uM incubated for 30 mins prior to forskolin-stimulation measured after 15 mins by enzyme immunoassay relative to NECA; assay type: functional, cell-based
T3 sequence (whole entry): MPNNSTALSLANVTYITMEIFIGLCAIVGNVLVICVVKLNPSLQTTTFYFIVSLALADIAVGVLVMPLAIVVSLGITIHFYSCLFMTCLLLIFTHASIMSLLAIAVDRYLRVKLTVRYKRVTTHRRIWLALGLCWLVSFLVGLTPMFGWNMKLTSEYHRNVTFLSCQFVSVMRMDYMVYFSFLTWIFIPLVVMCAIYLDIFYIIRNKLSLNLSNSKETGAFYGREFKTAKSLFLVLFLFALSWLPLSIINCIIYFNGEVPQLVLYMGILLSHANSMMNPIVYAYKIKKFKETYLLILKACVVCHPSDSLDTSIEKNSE

[6] = biological target: T4, Adenosine receptor A1 (Homo sapiens) (UniProt P30542); experiment: Displacement of [3H]R-PIA from human recombinant adenosine A1 receptor expressed in CHO cells at 10 uM after 60 mins by liquid scintillation counting; assay type: cell-based
T4 sequence (whole entry): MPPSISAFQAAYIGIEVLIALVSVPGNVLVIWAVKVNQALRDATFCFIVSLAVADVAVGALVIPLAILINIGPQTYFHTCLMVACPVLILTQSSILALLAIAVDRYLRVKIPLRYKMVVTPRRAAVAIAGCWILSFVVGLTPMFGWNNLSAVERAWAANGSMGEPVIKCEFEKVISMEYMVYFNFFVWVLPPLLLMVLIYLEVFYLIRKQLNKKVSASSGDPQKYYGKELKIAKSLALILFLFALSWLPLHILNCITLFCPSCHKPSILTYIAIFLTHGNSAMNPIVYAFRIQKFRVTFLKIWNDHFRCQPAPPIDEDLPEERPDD

[7] = biological target: T5, Adenosine receptor A1 (Mus musculus) (UniProt Q60612); experiment: Displacement of from mouse adenosine A1 receptor expressed in HEK293 cells at 10 uM after 60 mins by liquid scintillation counting; set-up: reference not given here
T5 sequence (whole entry): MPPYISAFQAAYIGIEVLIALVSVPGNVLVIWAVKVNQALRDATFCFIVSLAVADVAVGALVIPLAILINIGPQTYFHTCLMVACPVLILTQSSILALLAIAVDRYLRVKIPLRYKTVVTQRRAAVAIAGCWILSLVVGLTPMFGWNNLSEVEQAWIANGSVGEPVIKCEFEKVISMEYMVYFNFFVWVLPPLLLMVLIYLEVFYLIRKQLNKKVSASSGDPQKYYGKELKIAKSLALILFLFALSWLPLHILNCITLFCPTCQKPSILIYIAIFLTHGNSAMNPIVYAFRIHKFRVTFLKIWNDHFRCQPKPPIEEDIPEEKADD

[8] = biological target: T2, Adenosine receptor A2a; experiment: Displacement of [3H]CGS21680 from human recombinant adenosine A2A receptor expressed in HEK293 cells after 60 mins by liquid scintillation counting; assay type: cell-based
[9] = biological target: T6, Adenosine receptor A2b (Homo sapiens) (UniProt P29275); experiment: Agonist activity at human adenosine A2B receptor by cAMP accumulation assay relative to NECA; assay type: functional
T6 sequence (whole entry): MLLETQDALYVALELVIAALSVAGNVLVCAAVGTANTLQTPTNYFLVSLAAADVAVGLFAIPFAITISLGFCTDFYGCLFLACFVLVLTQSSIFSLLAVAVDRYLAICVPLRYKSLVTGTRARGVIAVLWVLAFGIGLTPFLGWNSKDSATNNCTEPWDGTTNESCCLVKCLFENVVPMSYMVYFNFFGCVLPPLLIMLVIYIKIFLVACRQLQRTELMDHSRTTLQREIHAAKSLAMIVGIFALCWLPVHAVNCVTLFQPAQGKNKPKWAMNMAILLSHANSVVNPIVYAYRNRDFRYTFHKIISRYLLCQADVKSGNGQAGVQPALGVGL

SMILES | pKi [1] | inhibition [2] [%] | inhibition [3] [%] | Ratio Ki [4] | Efficacy [5] [%] | inhibition [6] [%] | inhibition [7] [%] | pKi [8] | Efficacy [9] [%]
CNC(=O)[C@@]12C[C@@H]1[C@@H](n1cnc3c(NC)nc(C#Cc4ccc(F)cc4)nc31)[C@H](O)[C@@H]2O | 7.42 | 19 | 0 | 70 | 80.3 | 21 | 29 | – | –
CNC(=O)[C@@]12C[C@@H]1[C@@H](n1cnc3c(NCc4cccc(Cl)c4)nc(C#Cc4ccccc4Cl)nc31)[C@H](O)[C@@H]2O | 8.58 | 52 | 19 | – | 103 | 19 | 51 | – | –
CNC(=O)[C@@]12C[C@@H]1[C@@H](n1cnc3c(NCc4cccc(Cl)c4)nc(C#Cc4ccc5ccc6cccc7ccc4c5c67)nc31)[C@H](O)[C@@H]2O | 7.32 | – | 64 | – | 77.8 | 8 | 8 | 5.51 | 20
CNC(=O)[C@@]12C[C@@H]1[C@@H](n1cnc3c(NC)nc(C#Cc4ccc(F)c(F)c4)nc31)[C@H](O)[C@@H]2O | – | 6 | – | – | 108 | 6 | – | – | –
CNC(=O)[C@@]12C[C@@H]1[C@@H](n1cnc3c(NC)nc(C#Cc4ccccn4)nc31)[C@H](O)[C@@H]2O | – | 13 | – | – | – | 11 | – | – | –
CNC(=O)[C@@]12C[C@@H]1[C@@H](n1cnc3c(NC)nc(C#Cc4ccccc4)nc31)[C@H](O)[C@@H]2O | – | 14 | – | – | – | 13 | – | – | –
CNC(=O)[C@@]12C[C@@H]1[C@@H](n1cnc3c(NCc4cccc(Cl)c4)nc(C#Cc4ccc(F)cc4)nc31)[C@H](O)[C@@H]2O | 8.62 | 42 | 7 | – | 102 | 20 | 65 | – | 20
CNC(=O)[C@@]12C[C@@H]1[C@@H](n1cnc3c(NCc4cccc(Cl)c4)nc(C#Cc4ccc(F)c(F)c4)nc31)[C@H](O)[C@@H]2O (single isomer, unassigned) | – | 41 | 27 | – | – | 6 | 14 | – | 20
CNC(=O)[C@@]12C[C@@H]1[C@@H](n1cnc3c(NC)nc(C#Cc4ccc(C(C)=O)cc4)nc31)[C@H](O)[C@@H]2O | – | – | – | – | 87.4 | 15 | – | 5.28 | 20
CNC(=O)[C@@]12C[C@@H]1[C@@H](n1cnc3c(NC)nc(C#Cc4cc(F)cc(F)c4)nc31)[C@H](O)[C@@H]2O | – | 47 | – | – | 99.6 | 8 | – | – | –
CNC(=O)[C@@]12C[C@@H]1[C@@H](n1cnc3c(NCc4cccc(I)c4)ncnc31)[C@H](O)[C@@H]2O | – | – | – | – | 100 | – | – | – | –
CNC(=O)[C@@]12C[C@@H]1[C@@H](n1cnc3c(NC)nc(C#Cc4cccc5ccccc45)nc31)[C@H](O)[C@@H]2O | – | 34 | – | – | 94.6 | 25 | – | – | –
CNC(=O)[C@@]12C[C@@H]1[C@@H](n1cnc3c(NC)nc(C#Cc4cccc(F)c4)nc31)[C@H](O)[C@@H]2O | – | 10 | – | – | 95.8 | 12 | – | – | –
CNC(=O)[C@@]12C[C@@H]1[C@@H](n1cnc3c(NCc4cccc(Cl)c4)nc(C#Cc4ccc(-c5ccccc5)cc4)nc31)[C@H](O)[C@@H]2O | 7.97 | 0 | 6 | 3 | 89 | 2 | 41 | – | –
CNC(=O)[C@@]12C[C@@H]1[C@@H](n1cnc3c(NCc4cccc(Cl)c4)nc(C#Cc4cccc(C(=O)O)c4)nc31)[C@H](O)[C@@H]2O | 8.44 | 38 | 22 | – | 86.7 | 6 | 18 | – | –
CNC(=O)[C@@]12C[C@@H]1[C@@H](n1cnc3c(NCc4cccc(Cl)c4)nc(C#Cc4cccc(Cl)c4)nc31)[C@H](O)[C@@H]2O | 8.62 | – | 55 | – | 91.5 | 4 | 35 | 5.76 | 20
CNC(=O)[C@@]12C[C@@H]1[C@@H](n1cnc3c(NC)nc(C#Cc4ccc(C(C)(C)C)cc4)nc31)[C@H](O)[C@@H]2O | – | 7 | – | – | 78.4 | 23 | – | – | –
CNC(=O)[C@@]12C[C@@H]1[C@@H](n1cnc3c(NC)nc(C#Cc4cccc(Cl)c4)nc31)[C@H](O)[C@@H]2O | – | – | – | – | 90.9 | 10 | – | – | 20
CNC(=O)[C@@]12C[C@@H]1[C@@H](n1cnc3c(NC)nc(C#Cc4ccc(-c5ccccc5)cc4)nc31)[C@H](O)[C@@H]2O | – | 29 | – | – | 110 | 21 | – | – | –
CNC(=O)[C@@]12C[C@@H]1[C@@H](n1cnc3c(NC)nc(C#Cc4ccccc4F)nc31)[C@H](O)[C@@H]2O | – | 17 | – | – | 97.7 | 21 | – | – | –
CCc1ccc(C#Cc2nc(NC)c3ncn([C@H]4[C@H](O)[C@H](O)[C@]5(C(=O)NC)C[C@H]45)c3n2)cc1 | – | 38 | – | – | 110 | 13 | – | – | –
CNC(=O)[C@@]12C[C@@H]1[C@@H](n1cnc3c(NC)nc(C#Cc4ccccc4Cl)nc31)[C@H](O)[C@@H]2O | 7.43 | 30 | 2 | 70 | 84.2 | 27 | 55 | – | –
CNC(=O)[C@@]12C[C@@H]1[C@@H](n1cnc3c(NC)nc(C#Cc4cc5ccccc5c5ccccc45)nc31)[C@H](O)[C@@H]2O | – | 52 | – | – | 108 | 15 | – | – | –
CNC(=O)[C@@]12C[C@@H]1[C@@H](n1cnc3c(NC)nc(C#Cc4ccc(Cl)cc4)nc31)[C@H](O)[C@@H]2O | – | 30 | – | – | 97.4 | 14 | – | – | –
CNC(=O)[C@@]12C[C@@H]1[C@@H](n1cnc3c(NC)nc(C#Cc4ccc(Br)cc4)nc31)[C@H](O)[C@@H]2O | – | 26 | – | – | 97.5 | 13 | – | – | –
CNC(=O)[C@@]12C[C@@H]1[C@@H](n1cnc3c(NC)nc(C#Cc4cccc(N)c4)nc31)[C@H](O)[C@@H]2O | – | 19 | – | – | 109 | 10 | – | – | –
CNC(=O)[C@@]12C[C@@H]1[C@@H](n1cnc3c(NCc4cccc(Cl)c4)nc(C#Cc4ccccc4)nc31)[C@H](O)[C@@H]2O | – | 27 | 2 | – | 101 | 20 | 50 | – | –
